Article PMC3365043, “Receptor-Targeting Phthalocyanine Photosensitizer for Improving Antitumor Photocytotoxicity” (PLoS ONE, 2012)
pIC50: −log10 of the molar value. Like-named read-outs stand apart in the source and are kept apart here.

Experiments:
[1] = in DMSO; ref 20; cited from earlier work
Source text: Table 1 Photophysical parameters of ZnPc-GnRH conjugate in DMSO compared to that of ZnPc in DMSO. | column: Фf

[2] = in DMSO, cited from earlier work
Source text: Table 1 Photophysical parameters of ZnPc-GnRH conjugate in DMSO compared to that of ZnPc in DMSO. | column: τs (ns)

S180 tumor-bearing mice = details: cited from earlier work
Source text: We previously described a peptide-conjugated photosensitizer (ZnPc-(Lys)5), zinc phthalocyanine (ZnPc) conjugated with pentalysine peptidyl moiety, and reported its in vitro and in vivo efficacy. The pentalysine peptide renders water solubility of ZnPc that is otherwise not soluble in physiological condition and requires specialized formulation with, e.g., Cremophor EL. […] Herein we report the synthesis and the physicochemical characterization of this ZnPc-GnRH conjugate, along with the evaluation of its photodynamic activity at cellular level. […] This work p ...

MCF-7 [3] = test system: MCF-7
Experimental: (§1) The cell lines we used in the current study were human breast cancer cell lines (MDA-MB-231 and MCF-7), human hepatoblastoma cell line (HepG2) and human embryo lung fibroblasts (HELF). All these cell lines were purchased from American Type Culture Collection (ATCC, Manassas, VA, USA).
(§2) MDA-MB-231 and MCF-7 cells were maintained routinely in Dulbecco’s modified Eagle’s medium (DMEM) supplemented with 10% fetal calf serum (FCS) and antibiotics. HepG2 and HELF cells were grown in RPMI-1640 supplemented with 10% FCS and antibiotics. All cells were kept at 37°C in a humidified incubator with 5% CO2 atmosphere. The viability of cells was determined by Trypan blue dye exclusion. Cells were maintained in logarithmic phase with viability >95%.
(§3) Cells at a density of 2.5×10^5 per ml in a volume of 200 µl per well were placed in 96-multiwell black opaque plates and incubated overnight at 37°C under 5% CO2. […] The plates were illuminated at a light dosage of 1.5 J cm^−2 using a 670 nm SAS-DL3 medical laser (Beijing Shou’anshan Electronic Technology Co. Ltd. Beijing, China) and then returned to incubator; dark toxicity was measured in parallel. After 24 hr incubation, cell viability was measured on a microplate reader (Synergy 4, BioTek Instruments) using the AlamarBlue® fluorometric cell viability assay (BioSource International Inc., Camarillo, CA, USA) with λex 530 nm and λem 585 nm. […]

MDA-MB-231 [4] = experiment: Phototoxicity and dark toxicity, AlamarBlue cell viability; details: read-out: Phototoxicity IC50 (50% growth inhibition), 12 hr incubation, 670 nm laser, 1.5 J cm−2, viability after 24 hr
Experimental: as §1, §2, §3

MCF-7 [5] = experiment: as above; details: read-out: Phototoxicity IC50 (50% growth inhibition), 12 hr incubation, 670 nm laser, 1.5 J cm−2, viability after 24 hr
Experimental: as §1, §2, §3

[6] = Fluorescence quantum yield, comparative method with ZnPc as standard; assay type: physicochemical; details: in DMSO, ZnPc standard (Фf 0.2)
Experimental: Fluorescence quantum yield (Фf) of ZnPc-GnRH conjugate was measured by a comparative method using ZnPc as a standard (Фf (ZnPc) in DMSO = 0.2) using the Eq. (1) [drawing 1] (1) where Фf and Ф0 are fluorescence quantum yields of the conjugate and standard, respectively. Au and A0 are absorbances of the conjugate and standard, respectively. Fu and F0 are areas under the emission curves of the conjugate and standard, respectively. nu and n0 are refractive indices of the solvents used for the conjugate and standard, respectively. The fluorescence of the conjugate and standard were measured on a Cary Eclipse Fluorescence spectrophotometer (Varian, Inc., Walnut Creek, CA).

HELF [7] = test system: HELF
Experimental: as §1, §2, §3

[8] = Fluorescence decay time by time-correlated single photon counting; assay type: physicochemical; details: in DMSO, 300 K, fitted decay curve
Experimental: Fluorescence decay time (τs) of ZnPc-GnRH conjugate was measured by time-correlated single photon counting experiment of fluorescence excited with a 1.2 ns pulse laser diode at 460 nm, performed on an Edinburgh Instruments FLS920 spectrofluorometer (Livingston, UK) at 300 K. Fluorescence lifetimes were estimated by fitting the decay data using an interactive deconvolution procedure based on Marquardt algorithm with software supplied by OriginLab.

HepG2 [9] = test system: HepG2
Experimental: as §1, §2, §3

MDA-MB-231 [10] = test system: MDA-MB-231
Experimental: as §1, §2, §3

[11] = Singlet oxygen quantum yield determination (DPBF decay); assay type: physicochemical; details: in DMSO; 0.5 µM; DPBF decay at 417 nm; 670 nm laser at 80 mW cm−2; ZnPc reference (0.67); error less than 10%
Experimental: The PDT effect of ZnPc type photosensitizer is usually mediated by type II mechanism involving singlet oxygen (^1O2) as major cytotoxic agent. The quantum yield of ^1O2 generation by ZnPc-GnRH was determined by comparing with the un-substituted zinc phthalocyanine (ZnPc) as reference, which has a quantum yield of 0.67 in DMSO [21]. Briefly, a 2 ml DMSO solution of the mixture of the ZnPc-GnRH conjugate (0.5 µM) and 1,3-diphenylisobenzofuran (DPBF, a scavenger molecule for ^1O2), was introduced to the spectrophotometric cell of 1 cm path length and illuminated with a laser light (670 nm at 80 mW cm^−2) in the presence of air (without degassing). The DPBF decay at 417 nm was monitored every 5 s. The concentration of DPBF was kept lower than 3×10^−5 M during the experiment to avoid chain reactions induced by DPBF in the presence of ^1O2. The quantum yield measurement has an error of less than 10%.

HepG2 [12] = experiment: Cellular uptake (fluorescence of cell lysate); assay type: cell-based, human; details: 10^−7 to 10^−4.5 M, 12 hr, 37°C, 0.2% Cremophor EL (ZnPc-COOH), mean of four experiments
Experimental: (§4) Aliquots of cells (2.5×10^5 per ml growth medium) were placed in 96-multiwell black opaque plates (Costa) and incubated overnight at 37°C under 5% CO2. Various concentrations (10^−7, 10^−6.5, 10^−6, 10^−5.5, 10^−5 and 10^−4.5 M) of ZnPc-GnRH conjugate (in 1% DMSO) or ZnPc-COOH (in an additional 0.2% Cremophor EL) were added and incubated with cells at 37°C. After 12 hr incubation, the exponentially growing cells were washed with sterile PBS before lysis with NaOH (0.1 N, 0.2 ml with 1% SDS) to give a homogenous solution. The fluorescence of the cell extract was measured on a microplate reader (Synergy 4, BioTek Instruments) with λex = 610 nm and λem = 690 nm. The concentration of cellular protein was determined with a BCA Protein Assay Kit (BioTeke Corporation, Beijing, China). Standard curves were made with cell lysates treated as above with known added amounts of bovine serum albumin. Results are expressed as nmol photosensitizer per mg cell protein.

MCF-7 [13] = experiment: Cellular uptake (fluorescence of cell lysate); details: 10^−7 to 10^−4.5 M, 12 hr, 37°C, 1% DMSO (ZnPc-GnRH) or 0.2% Cremophor EL (ZnPc-COOH), lysate fluorescence λex 610/λem 690 nm, mean of four experiments
Experimental: as §4

HELF [14] = experiment: Cellular uptake (fluorescence of cell lysate); assay type: cell-based, human; details: 10^−7 to 10^−4.5 M, 12 hr, 37°C, 0.2% Cremophor EL (ZnPc-COOH), mean of four experiments
Experimental: as §4

MDA-MB-231 [15] = experiment: Cellular uptake (fluorescence of cell lysate); details: 10^−7 to 10^−4.5 M, 12 hr, 37°C, 1% DMSO (ZnPc-GnRH) or 0.2% Cremophor EL (ZnPc-COOH), mean of four experiments
Experimental: as §4

Experimental for MCF-7 cells: 200 µl of MCF-7 cells (at a density of 2.5×10^5 per ml) were seeded in each well of 96-multiwell black opaque plates and incubated overnight at 37°C under 5% CO2. After treated with or without Cetrorelix (at a concentration of 7.5×10^−7 M), a GnRH antagonist, for 12 hr at 37°C, MCF-7 cells were washed twice with sterile PBS before fresh medium was added. These exponentially growing MCF-7 cells were then allowed to incubate with ZnPc-GnRH conjugate (at a concentration of 5×10^−6 M) for various time periods (5, 10, 20, 40, 80, 120 and 180 min) before the cellular uptakes were measured at different incubation time points as described above to determine the cellular uptake curves.

[Zn+2].c1ccc2c(c1)-c1nc-2nc2[n-]c(nc3nc([n-]c4nc(n1)-c1ccccc1-4)-c1ccccc1-3)c1ccccc21 [ZnPc, Zinc phthalocyanine]
Fluorescence quantum yield (Фf) [1]: 0.20 [20] | Fluorescence decay time (τs) ([2]; ref 23): 1.22 ns | Fluorescence decay time (τs) ([2]; ref 24): 3.6 ns | Distribution in murine brain (S180 tumor-bearing mice; murine brain): very low level of distribution

CC(C)C[C@H](NC(=O)CNC(=O)[C@H](Cc1ccc(O)cc1)NC(=O)[C@H](CO)NC(=O)[C@H](Cc1c[nH]c2ccccc12)NC(=O)[C@H](Cc1c[nH]cn1)NC(=O)[C@H](CCC(=O)O)NC(=O)c1ccc2c3nc4nc(nc5[nH]c(nc6nc(nc([nH]3)c2c1)-c1ccccc1-6)c1ccccc51)-c1ccccc1-4)C(=O)N[C@@H](CCCNC(=N)N)C(=O)N1CCC[C@H]1C(=O)NCC(=O)O [ZnPc-GnRH]
Time at which cellular uptake reached the maximal level (MCF-7 cells): ~2 h | Dark toxicity (MCF-7 [3]): no obvious cellular dark toxicity | pIC50 (MDA-MB-231 [4]): 5.88 | pIC50 (MCF-7 [5]): 5.74 | Fluorescence quantum yield (Фf) [6]: 0.17 | Dark toxicity (HELF [7]): no obvious cellular dark toxicity | Phototoxicity (HELF [7]; HELF, 10^−7 to 10^−4.5 M, 12 hr incubation, 670 nm, 1.5 J cm−2): no significant phototoxicity | Fluorescence decay time (τs) [8]: 2.7 ns | Dark toxicity (HepG2 [9]): no obvious cellular dark toxicity | Phototoxicity (HepG2 [9]; HepG2, 10^−7 to 10^−4.5 M, 12 hr incubation, 670 nm, 1.5 J cm−2): no significant phototoxicity | Dark toxicity (MDA-MB-231 [10]): no obvious cellular dark toxicity | Singlet oxygen quantum yield (ФΔ) [11]: 0.73

Mono-substituted β-carboxyphthalocyanine zinc [ZnPc-COOH]
Cellular uptake (HepG2 [12]): low levels of cellular uptakes | Cellular uptake (MCF-7 [13]): low levels of cellular uptakes | Cellular uptake (HELF [14]): low levels of cellular uptakes | Cellular uptake (MDA-MB-231 [15]): low levels of cellular uptakes

pentalysine phthalocyanine zinc [ZnPc-(Lys)5]
Selectivity for tumor over brain tissue (S180 tumor-bearing mice; S180 tumor-bearing mice): 6 fold | Selectivity for tumor over muscle tissue (S180 tumor-bearing mice; S180 tumor-bearing mice): 2 fold
